Data published in patent US10501752B2, “Herbicide tolerant cotton event pDAB4468.19.10.3” (Dow AgroSciences LLC, priority 2012, dated 2019).

Legend:
Format in all cases: in vivo, Gossypium hirsutum
[1] = tested on: cotton event pDAB4468.19.10.3; assay: Tolerance to triclopyr and fluroxypyr in greenhouse trials (percent visual injury); conditions: for % Injury: cotton event, 3 leaf stage, greenhouse
Description: (§1) The tolerance of cotton event pDAB4468.19.10.3 to post-emergence applications of the pyridyloxyacetic acid herbicides, triclopyr and fluroxypyr, was studied in greenhouse trials. Herbicide tolerance was assessed following a single post-emergence application of triclopyr or fluroxypyr. Seed from cotton event pDAB4468.19.10.3 were heat treated in a water bath at 82.5° C. for 1 minute and then planted in metro mix 360 media and grown in a greenhouse. The temperatures in the greenhouse averaged 27° C. and the photoperiod was set at 16 hours of light and eight hours of dark, with maximum light intensity. Plants were allowed to grow until the 3 leaf stage of development and a non-randomized study was conducted with three replications and three treatments for each herbicide. Plants were sprayed in a track sprayer calibrated to deliver 187 L/ha of the commercial formulations of triclopyr (Garlon 4TM, Dow AgroSciences, Indianapolis, Ind.) and fluroxypyr ([…], Dow AgroSciences, Indianapolis, Ind.). A non-transformed Coker 310 variety of cotton was used as a negative control.

[2] = tested on: non-transformed Coker 310 variety of cotton; assay: Triclopyr and fluroxypyr greenhouse trials, negative control plants (percent visual injury); conditions: 3 leaf stage
Description: as §1

[3] = tested on: cotton event pDAB4468.19.10.3 (aad-12); assay: Tolerance to butanoic acids of triclopyr and fluroxypyr in greenhouse trials (% injury); conditions: 2-3 leaf stage
Description: (§2) Herbicide tolerance was assessed following a single post-emergence application of the two molecules. Seed from cotton event pDAB4468.19.10.3 were heat treated in a water bath at 82.5° C. for 1 minute and then planted in metro mix 360 media and grown in a greenhouse. The temperatures in the greenhouse averaged 27° C. and the photoperiod was set at 16 hours of light and eight hours of dark, with maximum light intensity. Plants were allowed to grow until the 2-3 leaf stage of development and a non-randomized study was conducted with four replications and three treatments for each herbicide. […] In addition, a crop oil concentrate was added to a final concentration of 1.25%. Plants were sprayed in a track sprayer calibrated to deliver 187 L/ha of the formulated technical material. A non-transformed Coker 310 variety of cotton was used as a negative control.

[4] = tested on: non-transformed Coker 310 variety of cotton (WT); assay: Butanoic acids of triclopyr and fluroxypyr greenhouse trials, negative control plants (% injury); conditions: 2-3 leaf stage
Description: as §2

Nc1c(Cl)c(F)nc(OCC(=O)O)c1Cl [Fluroxypyr, fluroxypyr]
% Injury ([1]; 70 g ae/ha, 3 DAA): 0.5 e %
% Injury ([1]; 70 g ae/ha, 11 DAA): 2.3 b %
% Injury ([1]; 140 g ae/ha, 3 DAA): 0.5 e %
% Injury ([1]; 140 g ae/ha, 11 DAA): 2.5 b %
% Injury ([1]; 280 g ae/ha, 3 DAA): 6.5 d %
% Injury ([1]; 280 g ae/ha, 11 DAA): 6.3 a %
herbicide level to which the event provides tolerance ([1]; by 3 DAA): up to 280 g ae/ha
% Injury ([2]; 70 g ae/ha, 3 DAA): 11.3 c %
% Injury ([2]; 70 g ae/ha, 11 DAA): 43.8 ab %
% Injury ([2]; 140 g ae/ha, 3 DAA): 27.3 b %
% Injury ([2]; 140 g ae/ha, 11 DAA): 36.3 b %
% Injury ([2]; 280 g ae/ha, 3 DAA): 33.3 a %
% Injury ([2]; 280 g ae/ha, 11 DAA): 43.8 ab %
% Injury ([3]; 140 g ai/ha, 1 DAA): 21.5a %
% Injury ([3]; 140 g ai/ha, 3 DAA): 8.8c %
% Injury ([3]; 140 g ai/ha, 6 DAA): 7.8b %
% Injury ([3]; 140 g ai/ha, 6 HAA): 19a %
% Injury ([3]; 140 g ai/ha, 14 DAA): 21.3ab %
% Injury ([3]; 280 g ai/ha, 1 DAA): 19.8a %
% Injury ([3]; 280 g ai/ha, 3 DAA): 15.3b %
% Injury ([3]; 280 g ai/ha, 6 DAA): 11.5a %
% Injury ([3]; 280 g ai/ha, 6 HAA): 14a %
% Injury ([3]; 280 g ai/ha, 14 DAA): 17.5b %
% Injury ([3]; 560 g ai/ha, 1 DAA): 21.5a %
% Injury ([3]; 560 g ai/ha, 3 DAA): 21.3a %
% Injury ([3]; 560 g ai/ha, 6 DAA): 14.3a %
% Injury ([3]; 560 g ai/ha, 6 HAA): 17a %
% Injury ([3]; 560 g ai/ha, 14 DAA): 25a %
% Injury ([4]; 140 g ai/ha, 1 DAA): 24.3a %
% Injury ([4]; 140 g ai/ha, 3 DAA): 32.5bc %
% Injury ([4]; 140 g ai/ha, 6 DAA): 38.8a %
% Injury ([4]; 140 g ai/ha, 6 HAA): 23.8a %
% Injury ([4]; 140 g ai/ha, 14 DAA): 60ab %
% Injury ([4]; 280 g ai/ha, 1 DAA): 25a %
% Injury ([4]; 280 g ai/ha, 3 DAA): 37.5ab %
% Injury ([4]; 280 g ai/ha, 6 DAA): 38.8a %
% Injury ([4]; 280 g ai/ha, 6 HAA): 22.5ab %
% Injury ([4]; 280 g ai/ha, 14 DAA): 65ab %
% Injury ([4]; 560 g ai/ha, 1 DAA): 23.5a %
% Injury ([4]; 560 g ai/ha, 3 DAA): 38.8a %
% Injury ([4]; 560 g ai/ha, 6 DAA): 41.3a %
% Injury ([4]; 560 g ai/ha, 6 HAA): 22.5ab %
% Injury ([4]; 560 g ai/ha, 14 DAA): 67.5a %

Nc1c(Cl)c(F)nc(OCCCC(=O)O)c1Cl [Fluroxypyr-b, fluroxypyr-B]
% Injury ([3]; 140 g ai/ha, 1 DAA): 3b %
% Injury ([3]; 140 g ai/ha, 3 DAA): 2d %
% Injury ([3]; 140 g ai/ha, 6 DAA): 2c %
% Injury ([3]; 140 g ai/ha, 6 HAA): 6.5b %
% Injury ([3]; 140 g ai/ha, 14 DAA): 0c %
% Injury ([3]; 280 g ai/ha, 1 DAA): 2b %
% Injury ([3]; 280 g ai/ha, 3 DAA): 2.3d %
% Injury ([3]; 280 g ai/ha, 6 DAA): 2.8c %
% Injury ([3]; 280 g ai/ha, 6 HAA): 7.8b %
% Injury ([3]; 280 g ai/ha, 14 DAA): 0c %
% Injury ([3]; 560 g ai/ha, 1 DAA): 3.5b %
% Injury ([3]; 560 g ai/ha, 3 DAA): 2d %
% Injury ([3]; 560 g ai/ha, 6 DAA): 2.8c %
% Injury ([3]; 560 g ai/ha, 6 HAA): 8b %
% Injury ([3]; 560 g ai/ha, 14 DAA): 2c %
% Injury ([4]; 140 g ai/ha, 1 DAA): 21.8a %
% Injury ([4]; 140 g ai/ha, 3 DAA): 32.5bc %
% Injury ([4]; 140 g ai/ha, 6 DAA): 37.5a %
% Injury ([4]; 140 g ai/ha, 6 HAA): 17.8b %
% Injury ([4]; 140 g ai/ha, 14 DAA): 56.3b %
% Injury ([4]; 280 g ai/ha, 1 DAA): 24.3a %
% Injury ([4]; 280 g ai/ha, 3 DAA): 33.8bc %
% Injury ([4]; 280 g ai/ha, 6 DAA): 41.3a %
% Injury ([4]; 280 g ai/ha, 6 HAA): 21.3ab %
% Injury ([4]; 280 g ai/ha, 14 DAA): 62.5ab %
% Injury ([4]; 560 g ai/ha, 1 DAA): 22.3a %
% Injury ([4]; 560 g ai/ha, 3 DAA): 31.3c %
% Injury ([4]; 560 g ai/ha, 6 DAA): 41.3a %
% Injury ([4]; 560 g ai/ha, 6 HAA): 20ab %
% Injury ([4]; 560 g ai/ha, 14 DAA): 61.3ab %
